Laboratory results published in patent US12459890B2, “Salt and crystal form of compound having agonistic activity to S1P5 receptor” (ONO PHARMACEUTICAL CO., LTD., priority 2019, dated 2025).

Assays:
[1] = Chemical stability test (residual rate by HPLC after storage); type: physicochemical; conditions: vs sample stored at −20° C.
Procedure: Stability of the salts and/or crystal forms of the present invention was studied under the storage conditions of Condition 1 or Condition 2. After storage, the residual rate (%) of the stored sample under each condition was calculated by HPLC based on the area percentage of the sample stored at −20° C.
• Condition 1 60° C.: 1 month: pulverized • Condition 2 80° C.: 1 week: unpulverized
Comparison object of each sample was stored at −20° C.

human S1P1 (EDG-1) = human S1P1 (EDG-1) (Homo sapiens, UniProt P21453); test: S1P receptor agonist activity by monitoring intracellular calcium concentration (S1P1); type: cell-based; conditions: CHO cells overexpressing human S1P1, intracellular calcium, S1P = 100%
Chain of human S1P1 (EDG-1) (P21453 whole entry): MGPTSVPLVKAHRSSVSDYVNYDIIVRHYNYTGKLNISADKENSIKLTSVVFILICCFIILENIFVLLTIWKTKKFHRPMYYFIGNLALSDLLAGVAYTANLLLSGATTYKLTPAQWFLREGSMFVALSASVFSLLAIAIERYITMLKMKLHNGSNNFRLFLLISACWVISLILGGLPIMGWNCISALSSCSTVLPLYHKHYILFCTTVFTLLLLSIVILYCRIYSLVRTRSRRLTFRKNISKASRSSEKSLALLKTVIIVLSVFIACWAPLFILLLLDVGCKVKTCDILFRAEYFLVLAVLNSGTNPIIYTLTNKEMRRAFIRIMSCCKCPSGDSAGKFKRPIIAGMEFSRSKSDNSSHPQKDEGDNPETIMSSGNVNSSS
Procedure: (§1) Chinese hamster ovary (CHO) cells in which human S1P1 (EDG-1) or human S1P5 (EDG-8) genes were overexpressed were cultured in Ham's F-12 medium containing 10% FBS (fetal bovine serum), penicillin/streptomycin, and geneticin (0.25 mg/mL). The medium was changed one day before the calcium assay was performed and on the day of the assay. Four hours after medium exchange, medium was removed and washed once with phosphate buffered saline. 0.05% Trypsin EDTA was added thereto to exfoliate the cells, and then a medium was added to recover the cells. The collected cell suspension was centrifuged to remove the supernatant, and suspended in phosphate buffered saline to count the number of cells. The cells were suspended in a Hanks solution containing Calcium 6 Assay Reagent (manufactured by Molecular Devices), 20 mM HEPES and 2.5 mM Probenecid so as to be 1.1×10^6 cells/mL, and incubated at 37° C. for about 1 hour. Thereafter, the supernatant was removed by centrifugation, and the cells were suspended in a Hanks solution containing 20 mM HEPES, 2.5 mM Probenecid and 0.1% BSA so as to be 2.2×10^6 cells/mL. The suspension was seeded in a 96 well plate at 80 μL/well. A plate was set in a fluorescent drug screening system (FDSS6000), Compound I or a comparative compound, and S1P were sequentially added, and an increase in intracellular calcium concentration before and after addition was measured at an excitation wavelength of 480 nm and a fluorescence wavelength of 540 nm. The increase in intracellular calcium concentration was evaluated by signal intensity at a fluorescence wavelength, and the agonist activity of each compound was calculated with the signal intensity when S1P was added instead of the compound as 100% activity.

human S1P5 (EDG-8) = human S1P5 (EDG-8) (Homo sapiens, UniProt Q9H228); test: S1P receptor agonist activity by monitoring intracellular calcium concentration (S1P5); type: cell-based; conditions: for S1P5 receptor agonist activity: CHO cells overexpressing human S1P5, intracellular calcium, S1P = 100%; for balance of S1P5 receptor agonist activity with respect to S1P1 receptor (selectivity): comparison of agonist activities on S1P1 and S1P5
Chain of human S1P5 (EDG-8) (Q9H228 whole entry): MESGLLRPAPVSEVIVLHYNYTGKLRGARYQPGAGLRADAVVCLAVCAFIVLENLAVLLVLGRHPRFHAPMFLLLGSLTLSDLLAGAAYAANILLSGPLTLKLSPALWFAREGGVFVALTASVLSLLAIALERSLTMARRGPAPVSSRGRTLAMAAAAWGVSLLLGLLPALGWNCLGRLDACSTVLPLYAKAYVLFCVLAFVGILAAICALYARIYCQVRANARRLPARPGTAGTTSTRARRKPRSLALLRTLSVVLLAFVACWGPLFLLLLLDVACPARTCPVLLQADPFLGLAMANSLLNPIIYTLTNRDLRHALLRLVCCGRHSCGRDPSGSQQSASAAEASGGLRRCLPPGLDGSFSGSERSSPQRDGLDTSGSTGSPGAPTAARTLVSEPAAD
Procedure: as §1

[2] = Measurement of clearance in rats; type: in vivo, rat; conditions: male SD rats, fasted, tail-intravenous administration, plasma
Procedure: A solution of Compound I was tail-intravenously administered to male SD rats under fasted conditions. After administration, rats were retained by a manual method at regular time intervals, and blood was collected from the jugular vein with sodium heparin.
The blood was centrifuged at 10,000 g, 3 min, 4° C. to obtain plasma. Concentration of Compound I in the plasma was measured by LC/MS/MS. Clearance was calculated from the plasma concentration transition using pharmacokinetic analysis software Phoenix WinNonlin (Certara USA, Inc.).

[3] = tested on: mouse experimental autoimmune encephalomyelitis model; test: Effectiveness in mouse experimental autoimmune encephalomyelitis model; type: in vivo; conditions: female C57BL/J mice, MOG35-55 immunization, oral once a day for 30 days
Procedure: Female C57BL/J mice (Charles River Laboratories Japan, Inc., age at start of experiment: 7 or 8 weeks of age) were used. Myelin Oligodendrocyte Glycoprotein [sequence 35-55 […] (AnaSpec, Inc., hereinafter MOG35-55)] was dissolved in physiological saline (Otsuka Pharmaceutical Factory, Inc.) to prepare a 2 mg/mL solution. The 2 mg/mL solution of MOG35-55 and an equal amount of FCA H37Ra (Difco Laboratories) were mixed to prepare an emulsion, and the emulsion was used as an inducing agent. Immunization was performed by subcutaneously administering 0.2 mL of the inducing agent into the mouse flank using a glass syringe equipped with a 26G injection needle. […]
After dividing into groups, administration of a test substance (Compound I), a positive control compound (FTY720; fingolimod), or a vehicle (water for injection) was started on the same day, and each test substance was repetitively orally administered once a day for 30 days from the day before the immunization to day 28 of immunization. The amount of the solution to be administered was calculated based on the individual body weight on the day of administration. […]

[4] = Condition 1: 60° C.: 1 month: pulverized
[5] = Condition 2: 80° C.: 1 week: unpulverized

Structure (SMILES)	Residual rate (%) [1, 4]	Residual rate (%) [1, 5]	other results
C[C@H]1Cc2cc(OCCCC(F)(F)F)ccc2C=C1CN1CC(C(=O)O)C1.O.O=C(O)c1ccc(O)cc1 [Example 12, hydrate of mono(4-hydroxybenzoate) of 1-[[(3S)-3-methyl-6-(4,4,4-trifluorobutoxy)-3,4-dihydronaphthalen-2-yl]methyl]azetidine-3-carboxylic acid]	95.3%		
C[C@H]1Cc2cc(OCCCC(F)(F)F)ccc2C=C1CN1CC(C(=O)O)C1 [Example 7, 1-[[(3S)-3-methyl-6-(4,4,4-trifluorobutoxy)-3,4-dihydronaphthalen-2-yl]methyl]azetidine-3-carboxylic acid]	99.1%		
CCCCCCCCOc1ccc2c(c1)CCC(CN1CC(C(=O)O)C1)=C2C.Cl [Comparative Compound A, 1-{[1-methyl-6-(octyloxy)-3,4-dihydro-2-naphthalenyl]methyl}-3-azetidine carboxylic acid hydrochloride]			S1P1 receptor agonist activity (human S1P1 (EDG-1)): had both S1P1 and S1P5 receptor agonist activities; S1P5 receptor agonist activity (human S1P5 (EDG-8)): had both S1P1 and S1P5 receptor agonist activities; balance of S1P5 receptor agonist activity with respect to S1P1 receptor (selectivity) (human S1P5 (EDG-8)): S1P1 receptor agonist activity being stronger than S1P5 receptor agonist activity
C[C@H]1Cc2cc(OCCCC(F)(F)F)ccc2C=C1CN1CC(C(=O)O)C1.N[C@@H](Cc1c[nH]c2ccccc12)C(=O)O [Example 14, mono-tryptophan salt of 1-[[(3S)-3-methyl-6-(4,4,4-trifluorobutoxy)-3,4-dihydronaphthalen-2-yl]methyl]azetidine-3-carboxylic acid]	99.1%	99.6%	
C[C@H]1Cc2cc(OCCCC(F)(F)F)ccc2C=C1CN1CC(C(=O)O)C1.O=C(O)c1ccccc1 [Example 9, monobenzoate of 1-[[(3S)-3-methyl-6-(4,4,4-trifluorobutoxy)-3,4-dihydronaphthalen-2-yl]methyl]azetidine-3-carboxylic acid]	97.9%		
C[C@H]1Cc2cc(OCCCC(F)(F)F)ccc2C=C1CN1CC(C(=O)O)C1.O [Example 8, hydrate of 1-[[(3S)-3-methyl-6-(4,4,4-trifluorobutoxy)-3,4-dihydronaphthalen-2-yl]methyl]azetidine-3-carboxylic acid]	97.8%		
C[C@H]1Cc2cc(OCCCC(F)(F)F)ccc2C=C1CN1CC(C(=O)O)C1 [Compound I, 1-[[(3S)-3-Methyl-6-(4,4,4-trifluorobutoxy)-3,4-dihydronaphthalen-2-yl]methyl]azetidine-3-carboxylic acid]			balance of S1P5 receptor agonist activity with respect to S1P1 receptor (selectivity) (human S1P5 (EDG-8)): selective agonist activity on the S1P5 receptor; Clearance [2]: low clearance; effectiveness in EAE model (neurological symptom score) [3]: shows effectiveness
COc1ccc2c(c1)C[C@H](C)C(CN1CC(F)(C(=O)O)C1)=C2 [Comparative Example, (S)-3-Fluoro-1-[(6-methoxy-3-methyl-3,4-dihydronaphthalen-2-yl)methyl]azetidine-3-carboxylic acid]			S1P1 receptor agonist activity (human S1P1 (EDG-1)): did not have S1P1 and S1P5 receptor agonist activities; S1P5 receptor agonist activity (human S1P5 (EDG-8)): did not have S1P1 and S1P5 receptor agonist activities
CCCc1ccc(COc2ccc3c(c2)CCC(CN2CC(C(=O)O)C2)=C3C)c(OC)c1 [Comparative Compound B, 1-({6-[(2-methoxy-4-propylbenzyl)oxy]-1-methyl-3,4-dihydro-2-naphthalenyl}methyl)-3-azetidine carboxylic acid]			S1P1 receptor agonist activity (human S1P1 (EDG-1)): had both S1P1 and S1P5 receptor agonist activities; S1P5 receptor agonist activity (human S1P5 (EDG-8)): had both S1P1 and S1P5 receptor agonist activities; balance of S1P5 receptor agonist activity with respect to S1P1 receptor (selectivity) (human S1P5 (EDG-8)): S1P1 receptor agonist activity being stronger than S1P5 receptor agonist activity
C[C@H]1Cc2cc(OCCCC(F)(F)F)ccc2C=C1CN1CC(C(=O)O)C1.C[C@H]1Cc2cc(OCCCC(F)(F)F)ccc2C=C1CN1CC(C(=O)O)C1.O=C(O)CCCCC(=O)O [Example 16, hemiadipate of 1-[[(3S)-3-methyl-6-(4,4,4-trifluorobutoxy)-3,4-dihydronaphthalen-2-yl]methyl]azetidine-3-carboxylic acid]		95.8%	
C[C@H]1Cc2cc(OCCCC(F)(F)F)ccc2C=C1CN1CC(C(=O)O)C1.C[C@H]1Cc2cc(OCCCC(F)(F)F)ccc2C=C1CN1CC(C(=O)O)C1.O=S(=O)(O)O [Example 13, hemisulfate of 1-[[(3S)-3-methyl-6-(4,4,4-trifluorobutoxy)-3,4-dihydronaphthalen-2-yl]methyl]azetidine-3-carboxylic acid]	97.1%		
C[C@H]1Cc2cc(OCCCC(F)(F)F)ccc2C=C1CN1CC(C(=O)O)C1.C[C@H]1Cc2cc(OCCCC(F)(F)F)ccc2C=C1CN1CC(C(=O)O)C1.O=C(O)CCC(=O)O [Example 15, hemisuccinate of 1-[[(3S)-3-methyl-6-(4,4,4-trifluorobutoxy)-3,4-dihydronaphthalen-2-yl]methyl]azetidine-3-carboxylic acid]		99.1%	
C[C@H]1Cc2cc(OCCCC(F)(F)F)ccc2C=C1CN1CC(C(=O)O)C1.O=C(O)c1ccc(O)cc1 [Example 10, mono(4-hydroxybenzoate) of 1-[[(3S)-3-methyl-6-(4,4,4-trifluorobutoxy)-3,4-dihydronaphthalen-2-yl]methyl]azetidine-3-carboxylic acid]	99.4%	99.6%	
